# Reference: PubChem BioAssay (NCI)
# “And” between values parts separate entries of the source, which are not always exact repeats. Identical values can stand only once.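 Each compound was tested at five concentrations against cells in 96-well plates for 48 hours. The concentration for 50% growth inhibition is given as GI50. The concentration for full growth arrest is given as TGI.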
# Assays:
# Assay in all cases: DTP human tumour cell line panel, 48 h
# [1] = tested on: MDA-MB-468 breast
# [2] = tested on: A549 NSCLC
# [3] = tested on: A498 renal
# [4] = tested on: MDA-MB-435
# [5] = tested on: U251 CNS
# [6] = tested on: UACC-62 melanoma
# [7] = tested on: NCI/ADR-RES ovarian
# [8] = tested on: NCI-H460 lung
# [9] = tested on: SF-295 CNS
# [10] = tested on: NCI-H23 lung
# [11] = tested on: DU-145 prostate
# [12] = tested on: SNB-19 CNS
# [13] = tested on: HOP-92 NSCLC
# [14] = tested on: TK-10 renal
# [15] = tested on: IGROV1 ovarian
# [16] = tested on: OVCAR-3 ovarian
# [17] = tested on: UACC-257 melanoma
# [18] = tested on: ACHN renal
# [19] = tested on: MCF7 breast
# [20] = tested on: OVCAR-4 ovarian
# [21] = tested on: CCRF-CEM leukemia
# [22] = tested on: SF-539 CNS
# [23] = tested on: HOP-62 NSCLC
# [24] = tested on: K-562 leukemia
# [25] = tested on: HS 578T breast
# [26] = tested on: SW-620 colon
# [27] = tested on: PC-3 prostate
# [28] = tested on: HL-60(TB) leukemia
# [29] = tested on: LOX IMVI melanoma
# [30] = tested on: BT-549 breast
# [31] = tested on: MALME-3M melanoma
# [32] = tested on: M14 melanoma
# [33] = tested on: COLO 205 colon
# [34] = tested on: OVCAR-5 ovarian
# [35] = tested on: 786-0 renal
# [36] = tested on: T-47D breast
# [37] = tested on: SF-268 CNS
# [38] = tested on: MOLT-4 leukemia
# [39] = tested on: RPMI-8226 leukemia
# [40] = tested on: HCT-15 colon
# [41] = tested on: KM12 colon
# [42] = tested on: CAKI-1 renal
# [43] = tested on: SR leukemia
# [44] = tested on: SN12C renal
# [45] = tested on: HCT-116 colon
# [46] = tested on: SK-MEL-5 melanoma
# [47] = tested on: SK-MEL-28 melanoma
# [48] = tested on: NCI-H522 lung
# [49] = tested on: EKVX NSCLC
# [50] = tested on: NCI-H226 lung
# [51] = tested on: OVCAR-8 ovarian
# [52] = tested on: RXF 393 renal
# [53] = tested on: HCC-2998 colon
# [54] = tested on: SK-OV-3 ovarian
# [55] = tested on: HT29 colon
smiles,measurement,setting,value
N/C(=N\C(N)=N\c1nc2ccccc2s1)c1cnccn1,GI50,[1],2470 nM
same,TGI,[1],6.07 µM
COc1ccc(OCC(O)CN2CCN(c3ccc(Cl)cc3)CC2)cc1 (stereo not drawn),GI50,[1],8930 nM
same,TGI,[1],> 100 µM
CC1=C(CNO)C2=C(C)C3(CC3)[C@@](C)(O)C(=O)C2=C1,GI50,[1],319 nM
same,TGI,[1],0.92 µM
NC(N)=N/N=C(/c1ccccc1)c1ccccc1F,TGI,[1],4.94 µM
NC(=O)c1ncn(C2OC(CO)C(O)C2O)c1N (stereo not drawn),GI50,[1],75600 nM
same,TGI,[1],> 100 µM
COc1ccc(-c2cc(-c3ccccc3)nc(NCCNc3ccnc4cc(Cl)ccc34)n2)cc1,GI50,[1],300 nM
same,TGI,[1],1.21 µM
COc1ccc(/C=C\c2cc(OC)c(OC)c(OC)c2)c(NS(=O)(=O)c2ccc(C(C)(C)C)cc2)c1O,GI50,[1],304 nM
same,TGI,[1],22.7 µM
COc1cccc(C2C(C#N)=C(N)Oc3cc4c(cc32)OCO4)c1 (stereo not drawn),GI50,[1],24.4 nM
same,TGI,[1],0.665 µM
CC1(C)CC[C@]2(C(=O)O)CC[C@]3(C)C(=CC[C@@H]4[C@@]5(C)C/C(=C/c6ccco6)C(=O)C(C)(C)[C@@H]5CC[C@]43C)[C@@H]2C1,GI50,[1],3290 nM
same,TGI,[1],30.9 µM
C#Cc1cccc(NC(=O)C2CCCN(C(=O)CCl)C2)c1 (stereo not drawn),GI50,[1],> 82500 nM
same,TGI,[1],> 82.5 µM
O=C(N/N=C/c1ccc(F)cc1)c1ccc(C(F)(F)F)nc1Nc1cccc(C(F)(F)F)c1,GI50,[1],327 nM
same,TGI,[1],1.51 µM
Cc1cc(Nc2ccc(Cl)cc2)nc(NCCCNc2ccnc3cc(Cl)ccc23)n1,GI50,[1],1610 nM
same,TGI,[1],3.18 µM
Cn1ccnc1C(=O)/C=C/c1ccc(C(=O)Nc2c(F)c(F)c(F)c(F)c2F)cc1,GI50,[1],1720 nM
same,TGI,[1],4.33 µM
COc1ccc(Cc2nc3cc(OC)c(OC)cc3c(=O)[nH]2)cc1,GI50,[1],3320 nM
same,TGI,[1],17.1 µM
Nc1nc(=S)c2[nH]cnc2[nH]1,GI50,[1],150 nM and 1040 nM
same,TGI,[1],1.23 µM and 8.93 µM
C#CC#CC#CC#CC#CC#CC#CC#CC[C@@H]1OC[C@@H](COC(=O)O[C@@H](C(=O)O[C@H]2C[C@@]3(O)[C@@H](OC(=O)c4ccccc4)[C@@H]4[C@]5(OC(C)=O)CO[C@@H]5C[C@H](O)[C@@]4(C)C(=O)[C@H](OC(C)=O)C(=C2C)C3(C)C)[C@@H](NC(=O)c2ccccc2)c2ccccc2)O1,GI50,[1],108 nM
same,TGI,[1],0.56 µM
CNCc1cccc2c1OCCOCCOCCC(C)S(=O)(=O)c1ccc(cc1)-c1cnc(N)c(n1)C(=O)N2 (stereo not drawn),GI50,[1],1290 nM
same,TGI,[1],3.71 µM
CCN(CC)CCNc1ccc([N+](=O)[O-])c2sc3cc(Cl)ccc3c(=O)c12,GI50,[1],17300 nM
same,TGI,[1],61.6 µM
CNCc1ccc(-c2[nH]c3cc(F)cc4c3c2CCNC4=O)cc1,GI50,[1],10800 nM
same,TGI,[1],25.2 µM
CCN1CCN(c2nc(NNC(=O)c3ccccc3)nc(N3CCN(C(c4ccccc4)c4ccccc4)CC3)n2)CC1,GI50,[1],1940 nM
same,TGI,[1],4.69 µM
O=C(OC[C@@H]1CO1)c1cccc2c(=O)c3ccccc3[nH]c12,GI50,[1],883 nM
same,TGI,[1],2.79 µM
Clc1ccc2c(NCCCN3CCN(c4nc(N5CCOCC5)nc5ccccc45)CC3)ccnc2c1,GI50,[1],1830 nM
same,TGI,[1],3.66 µM
CC1=C2[C@@H](CC1)[C@]1(C)O[C@@](C3CC3)(C[C@H]1OC(=O)CO)[C@H]2OC(=O)/C=C/c1ccccc1,GI50,[1],14600 nM
same,TGI,[1],30.6 µM
CCOc1ccc(Nc2nc(-c3c(C)nc4ncccn34)cs2)cc1,GI50,[1],303 nM
same,TGI,[1],15 µM
COc1cc(/C=C\c2cc(OC)c(OC)c(OC)c2)cc(NS(=O)(=O)c2ccc(Cl)cc2)c1OC,GI50,[1],271 nM
same,TGI,[1],19.4 µM
Cc1ccnc(Nc2ccc([N+](=O)[O-])c(NCCN3CCOCC3)n2)c1,GI50,[1],18.5 nM and 27.3 nM
CCSc1ncc(Br)c(Sc2nc(N)nc3nc[nH]c23)n1,GI50,[1],1720 nM
same,TGI,[1],7.81 µM
N#CCC1(n2cc(-c3ncnc4[nH]ccc34)cn2)CN(C2CCN(C(=O)c3ccnc(C(F)(F)F)c3F)CC2)C1,GI50,[1],44200 nM
same,TGI,[1],> 100 µM
N#CC(NC(=O)CCl)=C(Cl)Cl,GI50,[1],1330 nM
same,TGI,[1],3.48 µM
COc1ccc(/C=C/C(C)=N/OCC(=O)Nc2ccc(Cl)cc2)cc1,GI50,[1],2520 nM
same,TGI,[1],8.34 µM
CN(C)c1ccc(N=C2C=CC(=C(C#N)C#N)c3ccccc32)cc1,GI50,[1],393 nM
same,TGI,[1],2.35 µM
O=C(c1ccccc1)C(Br)C(Br)c1ccccc1 (stereo not drawn),GI50,[1],2070 nM
same,TGI,[1],4.65 µM
COC(=O)c1ccc2[nH]c(O)c(C(=Nc3ccc(N(C)C(=O)CN4CCN(C)CC4)cc3)c3ccccc3)c2c1,GI50,[1],1280 nM
same,TGI,[1],2.99 µM
COc1cc(OC)cc(-c2ccc(-c3ccc(C(=N)N)cn3)s2)c1,GI50,[1],1720 nM
same,TGI,[1],3.32 µM
O=C(Nc1ccc(F)cc1)Nc1nc2ccc([N+](=O)[O-])cc2s1,GI50,[2],2750 nM
same,TGI,[2],11.6 µM
same,GI50,[3],2260 nM
same,TGI,[3],6.46 µM
same,GI50,[4],3.18 µM
same,TGI,[4],11.3 µM
same,GI50,[5],3.3 µM
same,TGI,[5],11.3 µM
same,GI50,[6],2620 nM
same,TGI,[6],9.22 µM
same,GI50,[7],2850 nM
same,TGI,[7],9.36 µM
same,GI50,[8],2890 nM
same,TGI,[8],9.77 µM
same,GI50,[9],2040 nM
same,TGI,[9],5.27 µM
same,GI50,[10],2450 nM
same,TGI,[10],6.21 µM
same,GI50,[11],3.94 µM
same,TGI,[11],14 µM
same,GI50,[12],3.21 µM
same,TGI,[12],12.2 µM
same,GI50,[13],2590 nM
same,TGI,[13],7.13 µM
same,GI50,[14],3.29 µM
same,TGI,[14],12 µM
same,GI50,[15],3.93 µM
same,TGI,[15],14.5 µM
same,GI50,[16],3.45 µM
same,TGI,[16],12.1 µM
same,GI50,[17],2270 nM
same,TGI,[17],6.48 µM
same,GI50,[18],3.09 µM
same,TGI,[18],9.82 µM
same,GI50,[19],2510 nM
same,TGI,[19],8.65 µM
same,GI50,[20],3.3 µM
same,TGI,[20],13.2 µM
same,GI50,[21],2610 nM
same,TGI,[21],10.5 µM
same,GI50,[22],2590 nM
same,TGI,[22],6.91 µM
same,GI50,[23],3.19 µM
same,TGI,[23],11.8 µM
same,GI50,[24],3.03 µM
same,TGI,[24],10.4 µM
same,GI50,[25],2600 nM
same,TGI,[25],8.28 µM
same,GI50,[26],3.41 µM
same,TGI,[26],12.7 µM
same,GI50,[27],3.48 µM
same,TGI,[27],12.3 µM
same,GI50,[28],1970 nM
same,TGI,[28],4.67 µM
same,GI50,[29],3.58 µM
same,TGI,[29],12.8 µM
same,GI50,[30],1950 nM
same,TGI,[30],5.03 µM
same,GI50,[31],1960 nM
same,TGI,[31],5.38 µM
same,GI50,[32],2700 nM
same,TGI,[32],10.7 µM
same,GI50,[33],2100 nM
same,TGI,[33],3.97 µM
same,GI50,[34],3.45 µM
same,TGI,[34],12.9 µM
same,GI50,[35],3.07 µM
same,TGI,[35],11.5 µM
same,GI50,[36],2580 nM
same,TGI,[36],7.68 µM
same,GI50,[37],2780 nM
same,TGI,[37],11.3 µM
same,GI50,[38],2410 nM
same,TGI,[38],6.77 µM
same,GI50,[39],1920 nM
same,TGI,[39],5.04 µM
same,GI50,[40],2730 nM
same,TGI,[40],10.2 µM
same,GI50,[1],2360 nM
same,TGI,[1],6.75 µM
same,GI50,[41],3.05 µM
same,TGI,[41],10.5 µM
same,GI50,[42],2960 nM
same,TGI,[42],10.7 µM
same,GI50,[43],1860 nM
same,TGI,[43],5.02 µM
same,GI50,[44],2590 nM
same,TGI,[44],8.12 µM
same,GI50,[45],2920 nM
same,TGI,[45],10.4 µM
same,GI50,[46],1730 nM
same,TGI,[46],3.3 µM
same,GI50,[47],3000 nM
same,TGI,[47],11 µM
same,GI50,[48],2370 nM
same,TGI,[48],7.56 µM
same,GI50,[49],2900 nM
same,TGI,[49],10.3 µM
same,GI50,[50],3.34 µM
same,TGI,[50],11.7 µM
same,GI50,[51],3.42 µM
same,TGI,[51],11.9 µM
same,GI50,[52],2650 nM
same,TGI,[52],8.72 µM
same,GI50,[53],3.56 µM
same,TGI,[53],12.5 µM
same,GI50,[54],2140 nM
same,TGI,[54],6.98 µM
same,GI50,[55],3.42 µM
same,TGI,[55],11 µM
COc1ccc(/C(C)=C(\c2ccc(Cl)cc2)c2ccc(OCCN3CCCCCC3)cc2)cc1F,GI50,[1],2650 nM
same,TGI,[1],5.89 µM
